Like-named read-outs stand apart in the source and are kept apart here. *1 amine or outer side, *2 acyl side, *3 side chain or, on linkers, in order; H or OH if unused. Where a SMILES comes first, the peptide text is derived from it. Bridges are numbered along the chain shown (N, C = ends). [ ]: non-standard residue; d: D form. The star is where a group is joined. X1 = CCc1c2c(nc3ccc(O)cc13)-c1cc3c(c(=O)n1C2)COC(=O)[C@@]3(CC)OC(=O)CCCCn1cc(CCCC(=O)NCCCOCCOCCOCCCN*)nn1; Suc = O=C(CCC(=O)[*:2])[*:1]; Dap = NC[C@H](N)C(=O)O
Assays:
[1] = test system: Ewing sarcoma cell line A673; assay: MTS cell viability assay, Ewing sarcoma cell line A673; type: cell-based; conditions: 72 h incubation, Example 9, Table 3, read-out: IC50 values against cancer cell lines
Excerpt: (§1) Cancer cell lines were obtained from the repository maintained at Hospital Sant Joan de Deu (Barcelona, Spain). Cancer cell lines used in these experiment included cancer types of adult glioma (U373 and U87 cell lines), pediatric gliomas including diffuse intrinsic pontine glioma (HSJD-DIPG-007, HSJD-DIPG-011), and pediatric high-grade glioma (HSJD-GBM-001), retinoblastoma (HSJD-RBT-5, HSJD-RBT-7 and HSJD-RBT-14), Ewing sarcoma (A673), rhabdomyosarcoma (Rd and RH4) and neuroblastoma (LAN-1 and SK-N-JD cell lines and HSJD-NB-004, HSJD-NB-005 and HSJD-NB-016 patient-derived cell models). […] To add the drugs to the cells in culture, SN38-linker A-MiniAp4 (Ia) and irinotecan were prepared in culture medium from stock solutions at concentration 1 mg/mL in water. SN38 was prepared in culture medium from a stock solution at concentration 1 mg/mL in DMSO. […] Activity curves were built for adult glioma cell lines U87 (FIG. 1) and U373 (FIG. 2), pediatric gliomas including DIPG models HSJD-DIPG-007 (FIG. 3) and HSJD-DIPG-011 (FIG. 4), and pediatric high-grade glioma model HSJD-GBM-001 (FIG. 5), retinoblastoma models HSJD-RBT-5 (FIG. 6), HSJD-RBT-7 (FIG. 7) and HSJD-RBT-14 (FIG. 8), Ewing sarcoma cell line A673 (FIG. 9), rhabdomyosarcoma cell lines Rd (FIG. 10) and RH4 (FIG. 11), neuroblastoma cell lines LAN-1 (FIG. 12) and SK-N-JD (FIG. 13) and neuroblastoma patient-derived cell models HSJD-NB-004 (FIG. 14), HSJD-NB-005 (FIG. 15) and HSJD-NB-016 (FIG. 16). The established IC50 values are in Table 3.

[2] = test system: diffuse intrinsic pontine glioma HSJD-DIPG-007; assay: cells
Excerpt: as §1
Cancer cell lines used in these experiments were pediatric gliomas including diffuse intrinsic pontine glioma HSJD-DIPG-007, and pediatric high-grade glioma HSJD-GBM-001. […] To add the drugs to the cells in culture, SN38-Linker A-MiniAp4 (Ia) and SN38-Linker B-THRre were prepared in culture medium from stock solutions at concentration 1 mg/mL in water. SN38 was prepared in culture medium from a stock solution at concentration 1 mg/mL in DMSO. […] Activity curves were built for cells HSJD-DIPG-007 (FIG. 20) and HSJD-GBM-001 (FIG. 21).
Cancer cell lines used in these experiments were pediatric gliomas including diffuse intrinsic pontine glioma HSJD-DIPG-007, and pediatric high-grade glioma HSJD-GBM-001. […] All compounds were prepared in culture medium from stock solutions at concentration 1 mg/mL in water. […] Activity curves were built for cells HSJD-DIPG-007 (FIG. 22) and HSJD-GBM-001 (FIG. 23).
Cancer cell line used in these experiment was HSJD-DIPG-007.

[3] = test system: diffuse intrinsic pontine glioma HSJD-DIPG-011; assay: MTS cell viability assay, DIPG model HSJD-DIPG-011; type: cell-based; conditions: 72 h incubation, Example 9, Table 3, read-out: IC50 values against cancer cell lines
Excerpt: as §1

[4] = test system: rhabdomyosarcoma cell line Rd; assay: MTS cell viability assay, rhabdomyosarcoma cell line Rd; type: cell-based; conditions: 72 h incubation, Example 9, Table 3, read-out: IC50 values against cancer cell lines
Excerpt: as §1

[5] = test system: rhabdomyosarcoma cell line RH4; assay: MTS cell viability assay, rhabdomyosarcoma cell line RH4; type: cell-based; conditions: 72 h incubation, Example 9, Table 3, read-out: IC50 values against cancer cell lines
Excerpt: as §1

[6] = test system: retinoblastoma cell model HSJD-RBT-5; assay: MTS cell viability assay, retinoblastoma model HSJD-RBT-5; type: cell-based; conditions: 72 h incubation, Example 9, Table 3, read-out: IC50 values against cancer cell lines
Excerpt: as §1

[7] = test system: retinoblastoma cell model HSJD-RBT-7; assay: MTS cell viability assay, retinoblastoma model HSJD-RBT-7; type: cell-based; conditions: 72 h incubation, Example 9, Table 3, read-out: IC50 values against cancer cell lines
Excerpt: as §1

[8] = test system: retinoblastoma cell model HSJD-RBT-14; assay: MTS cell viability assay, retinoblastoma model HSJD-RBT-14; type: cell-based; conditions: 72 h incubation, Example 9, Table 3, read-out: IC50 values against cancer cell lines
Excerpt: as §1

[9] = test system: neuroblastoma cell line LAN-1; assay: MTS cell viability assay, neuroblastoma cell line LAN-1; type: cell-based; conditions: Example 9, Table 3, read-out: IC50 values against cancer cell lines
Excerpt: as §1

[10] = test system: neuroblastoma cell line SK-N-JD; assay: MTS cell viability assay, neuroblastoma cell line SK-N-JD; type: cell-based; conditions: 72 h incubation, Example 9, Table 3, read-out: IC50 values against cancer cell lines
Excerpt: as §1

[11] = test system: neuroblastoma patient-derived cell model HSJD-NB-004; assay: MTS cell viability assay, neuroblastoma model HSJD-NB-004; type: cell-based; conditions: 72 h incubation, Example 9, Table 3, read-out: IC50 values against cancer cell lines
Excerpt: as §1

[12] = test system: neuroblastoma patient-derived cell model HSJD-NB-005; assay: MTS cell viability assay, neuroblastoma model HSJD-NB-005; type: cell-based; conditions: 72 h incubation, Example 9, Table 3, read-out: IC50 values against cancer cell lines
Excerpt: as §1

[13] = test system: neuroblastoma patient-derived cell model HSJD-NB-016; assay: MTS cell viability assay, neuroblastoma model HSJD-NB-016; type: cell-based; conditions: 72 h incubation, Example 9, Table 3, read-out: IC50 values against cancer cell lines
Excerpt: as §1

[14] = HSJD-DIPG-007, 72 h, read-out: IC50 values against cancer cell lines

Row | IC50 ([1]; Homo sapiens) [nM] | IC50 [2, 14] [µM] | IC50 [3] [nM] | IC50 ([4]; Rhabdomyosarcoma cell) [nM] | IC50 ([5]; Rhabdomyosarcoma cell) [nM] | IC50 [6] [nM] | IC50 [7] [nM] | IC50 [8] [nM] | IC50 ([9]; LAN1, 72 h incubation) [nM] | IC50 ([10]; Neuroblastoma cell) [nM] | IC50 [11] [nM] | IC50 [12] [nM] | IC50 [13] [nM] | SMILES | further results
1 | 1440 | 4.75 | 1200 | 5960 | 10800 | 911 | 1120 | 2600 | 7000 | 7760 | 9840 | 8200 | 659 | CCc1c2c(nc3ccc(OC(=O)N4CCC(N5CCCCC5)CC4)cc13)-c1cc3c(c(=O)n1C2)COC(=O)[C@]3(O)CC [Irinotecan] | –
2 | 0.462 | 0.00113 | 1.12 | 1.57 | 14.8 | 10.3 | 0.335 | 1.08 | 1.96 | 7.55 | 231 | 12.5 | 12.3 | CCc1c2c(nc3ccc(O)cc13)-c1cc3c(c(=O)n1C2)COC(=O)[C@]3(O)CC [SN38, 7-ethyl-10-hydroxy-camptothecin] | IC50 ([2]; HSJD-DIPG-007, 72 h, read-out: IC50 values (μM)): 0.000739 µM; IC50 ([2]; HSJD-DIPG-007, 72 h, read-out: IC50 values of compounds): 0.00151 µM

Row | SMILES | IC50 ([1]; Homo sapiens) [nM] | IC50 [2, 14] [µM] | IC50 [3] [nM] | IC50 ([4]; Rhabdomyosarcoma cell) [nM] | IC50 ([5]; Rhabdomyosarcoma cell) [nM] | IC50 [6] [nM] | IC50 [7] [nM] | IC50 [8] [nM] | IC50 ([9]; LAN1, 72 h incubation) [nM] | IC50 ([10]; Neuroblastoma cell) [nM] | IC50 [11] [nM] | IC50 [12] [nM] | IC50 [13] [nM] | further results
3 | CCc1c2c(nc3ccc(O)cc13)-c1cc3c(c(=O)n1C2)COC(=O)[C@@]3(CC)OC(=O)CCCCn1cc(CCCC(=O)NCCCOCCOCCOCCCNC(=O)CCC(=O)N[C@H]2CNC(=O)C[C@@H](C(N)=O)NC(=O)[C@H](CC(C)C)NC(=O)[C@H](C)NC(=O)[C@H]([C@@H](C)O)NC(=O)[C@H](CCC(=O)O)NC(=O)[C@@H]3CCCN3C(=O)[C@H](C)NC(=O)[C@H](CCCCN)NC2=O)nn1 [SN38-linker A-MiniAp4 (Ia)] ({X1-Suc}-[Dap]KAPETALD-NH2; lactam 1-9) | – | – | 72.9 | – | – | 92.1 | 15.1 | 33.5 | – | – | 76.9 | 51.5 | 25.6 | IC50 [1]: 3.8 nM; IC50 ([2]; read-out: IC50 values (μM) against cancer cell lines, HSJD-DIPG-007, MTS, 72 h incubation, Example 12, Table 5): 0.0203 µM; IC50 ([2]; read-out: IC50 values against cancer cell lines, HSJD-DIPG-007, MTS, 72 h incubation, Example 9, Table 3): 0.0342 µM; IC50 ([2]; read-out: IC50 values of compounds, HSJD-DIPG-007, MTS, 72 h incubation, Example 11, Table 4): 0.0107 µM; IC50 ([2]; read-out: IC50 values, HSJD-DIPG-007, MTS, 72 h incubation, Example 25, Table 8): 0.0278 µM; IC50 [4]: 6.94 nM; IC50 [5]: 81.5 nM; IC50 ([9]; 72 h incubation): 21.6 nM; IC50 [10]: 13.9 nM

From patent publication US20240285784A1, “PEPTIDIC CONJUGATES OF SN38 USEFUL IN THE TREATMENT OF CANCER” (FUNDACIÓ INSTITUT DE RECERCA BIOMÈDICA (IRB BARCELONA), priority 2020, published 2024)
